Assay results as given in patent US20080207748A1, “VITAMIN C PREPARATION” (INNOVATION LABS, INC., priority 2007, published 2008).

Legend:
[1] = system: human T-lymphoblastic H9 cell line; test: Inhibition of PHA- or bifenthrin-induced homotypic T-lymphocyte aggregation; format: cell-based; conditions: H9 cells, 0.5 μM vitamin C form, 30 minutes at 37° C.; for homotypic aggregation (aggregate size), activator: None: no activator
Description: The ability to inhibit pesticide-induced T-lymphocyte aggregation was determined for the formulation of Example 1 and other vitamin C formulations.
The human T-lymphoblastic H9 cell line was incubated with vehicle (-) or with one of two activators of T-lymphocyte aggregation, phytohemagglutinin (PHA; […]) or bifenthrin ([…]). […] After treatment, the ability of each formulation to inhibit homotypic aggregation was measured by counting aggregate size at 400× magnification.

[2] = Human serum vitamin C levels after single oral dose; format: in vivo
Description: (§1) The human serum vitamin C, plasma C-reactive protein, oxidized LDL, and urine uric and oxalate levels were determined for the formulation of Example 1 and other vitamin C formulations.
(§2) Healthy volunteers maintained a low vitamin C diet for 14 days. […] Blood samples were collected immediately prior to the oral dose administration and at various time points post ingestion. Urine was collected over a 24-hour time period and saved for oxalate and uric acid assays. Serum vitamin C levels were measured by HPLC with coulometric electrochemical detection. Plasma C-reactive protein and oxidized LDL were measured by enzyme linked immunosorbent assay (ELISA) and urine uric acid and oxalate levels were measured by enzymatic methods.

[3] = system: Plasma C-Reactive Protein; test: Human plasma C-reactive protein after single oral dose; format: in vivo; conditions: for Plasma C-Reactive Protein Change: 0 vs 24 hrs
Description: as §1, §2

[4] = system: Plasma OxLDL; test: Human plasma oxidized LDL after single oral dose; format: in vivo; conditions: for Plasma OxLDL Change: 0 vs 24 hrs
Description: as §1, §2

[5] = Human urine uric acid after single oral dose; format: in vivo; conditions: single oral dose 1000 mg, urine collected over 24 hours
Description: as §1, §2

[6] = Human urine oxalate after single oral dose; format: in vivo; conditions: single oral dose 1000 mg, urine collected over 24 hours
Description: as §1, §2

[7] = system: H9 cells, a human T-cell line; test: Vitamin C absorption (uptake) in H9 cells; format: cell-based; conditions: 50 μM
Description: The rate of vitamin C absorption in H9 cells, a human T-cell line, was determined for the formulation of Example 1 and other vitamin C formulations.
At the times indicated in FIG. 1, cells were harvested and measured for vitamin C and protein content. The cellular vitamin C levels of the cells were measured using the 2,4-dinitrophenylhydrazine spectrophotometric technique (Bessey et al., 1947).

[8] = 0 hrs (immediately prior to oral dose)
[9] = single oral dose 1000 mg, 24 hrs

| Compound | homotypic aggregation (aggregate size), activator: PHA [1] | homotypic aggregation (aggregate size), activator: Bifenthrin [1] | homotypic aggregation (aggregate size), activator: None [1] | Serum Vitamin C Levels ([2]; 0 hrs (immediately prior to single oral dose of 1000 mg)) | Serum Vitamin C Levels ([2]; single oral dose 1000 mg, 1 hr post-admin) | Serum Vitamin C Levels ([2]; single oral dose 1000 mg, 2 hrs post-admin) | Serum Vitamin C Levels ([2]; single oral dose 1000 mg, 4 hrs post-admin) | Serum Vitamin C Levels ([2]; single oral dose 1000 mg, 6 hrs post-admin) | Serum Vitamin C Levels ([2]; single oral dose 1000 mg, 24 hrs post-admin) | Plasma C-Reactive Protein [3, 8] | Plasma C-Reactive Protein Change [3] | Plasma C-Reactive Protein [3, 9] | Plasma OxLDL [4, 8] | Plasma OxLDL Change [4] | Plasma OxLDL [4, 9] | Urine Markers: Uric Acid [5] | Urine Markers: Oxalate [6] | cellular vitamin C levels (peak) ([7]; at approximately two hours) | cellular vitamin C levels ([7]; at fifteen minutes) |
| --- | --- | --- | --- | --- | --- | --- | --- | --- | --- | --- | --- | --- | --- | --- | --- | --- | --- | --- | --- |
| calcium ascorbate [CaA] | 110 ± 10 | 137 ± 8 | 12 ± 4 | 0.50 ± 0.05 mg/dL | 0.88 ± 0.10 mg/dL | 1.12 ± 0.17 mg/dL | 1.03 ± 0.13 mg/dL | 1.0 ± 0.13 mg/dL | 0.59 ± 0.09 mg/dL | 189.17 ± 41 ng/mL | 8.34 ng/mL | 180.83 ± 43 ng/mL | 60.56 ± 5 U/ml | 3.78 U/ml | 57.67 ± 6 U/ml | 39.75 ± 10.5 mg/dL | 17.8 ± 2.6 mg/dL |  |  |
| O=C1O[C@H]([C@@H](O)CO)C(O)=C1O [AA, ascorbic acid] | 75 ± 12 | 130 ± 5 | 9 ± 4 |  |  |  |  |  |  | 129.75 ± 26 ng/mL | 12.75 ng/mL | 117.00 ± 33 ng/mL |  | 0.89 U/ml |  |  |  | 31 nmol/mg protein | 7±1.4 nmol/mg protein |
